IC50 data for 15 molecules are collected here from patent US8558002B2, “Sulfoximines as kinase inhibitors” (Allergan, Inc., priority 2006, dated 2013).

Each structure is given as a SMILES string. Some results are limits rather than exact numbers.

In one assay the target is T1, PDGFRβ (Homo sapiens, UniProt P09619).
T1 construct: 200-300 ng purified cytoplasmic domain PDGFR-b protein (Millipore); purchased Millipore
In words: PDGFRβ Kinase Assay (poly-Glu-Tyr ELISA). In kind it is biochemical. To be noted: purified cytoplasmic domain PDGFR-b protein, 36 μM ATP. As for the experimental part:
Biochemical PDGFRβ kinase assays were performed in 96 well microtiter plates that were coated overnight with 75 μg of poly-Glu-Tyr (4:1) in 10 mM Phosphate Buffered Saline (PBS), pH 7.4. The coated plates were washed with 2 mls per well PBS+0.05% Tween-20 (PBS-T), blocked by incubation with PBS containing 1% BSA, then washed with 2 mls per well PBS-T prior to starting the reaction. Reactions were carried out in 100 μL reaction volumes containing 36 μM ATP in kinase buffer (50 mM Hepes buffer pH 7.4, 20 mM MgCl2, 0.1 mM MnCl2 and 0.2 mM Na3VO4). Test compounds were reconstituted in 100% DMSO and added to the reaction to give a final DMSO concentration of 5%. Reactions were initiated by the addition 20 ul per well of kinase buffer containing 200-300 ng purified cytoplasmic domain PDGFR-b protein (Millipore). Following a 60 minute incubation at 30° C., the reactions were washed 2 mls per well PBS-T. […] of a monoclonal anti-phosphotyrosine antibody-peroxidase conjugate diluted 1:10,000 in PBS-T was added to the wells for 30 minutes. Following a 2 mls per well wash with PBS-Tween-20, 100 μl of O-Phenylenediamine Dihydrochloride in phosphate-citrate buffer, containing urea hydrogen peroxide, was added to the wells for 7-10 minutes as a colorimetric substrate for the peroxidase. The reaction was terminated by the addition of 100 μl of 2.5N H2SO4 to each well and read using a microplate ELISA reader set at 492 nm. IC50 values for compound inhibition were calculated directly from graphs of optical density (arbitrary units) versus compound concentration following subtraction of blank values.

In assay [1] the target is T2, VEGFR2 (Homo sapiens, UniProt P35968). In words: VEGFR2 Kinase Assay (biochemical KDR kinase, poly-Glu-Tyr ELISA). Also on record: 200-300 ng purified cytoplasmic domain KDR protein; purchased BPS Bioscience. To be noted: purified cytoplasmic domain KDR protein, 2.7 μM ATP. Here is the method:
Biochemical KDR kinase assays were performed in 96 well microtiter plates that were coated overnight with 75 μg/well of poly-Glu-Tyr (4:1) in 10 mM Phosphate Buffered Saline (PBS), pH 7.4. The coated plates were washed with 2 mls per well PBS+0.05% Tween-20 (PBS-T), blocked by incubation with PBS containing 1% BSA, then washed with 2 mls per well PBS-T prior to starting the reaction. Reactions were carried out in […] reaction volumes containing 2.7 μM ATP in kinase buffer (50 mM Hepes buffer pH 7.4, 20 mM MgCl2, 0.1 mM MnCl2 and 0.2 mM Na3VO4). Test compounds were reconstituted in 100% DMSO and added to the reaction to give a final DMSO concentration of 5%. Reactions were initiated by the addition 20 ul per well of kinase buffer containing 200-300 ng purified cytoplasmic domain KDR protein (BPS Bioscience, San Diego, Calif.). Following a 15 minute incubation at 30° C., the reactions were washed 2 mls per well PBS-T. 100 μl of a monoclonal anti-phosphotyrosine antibody-peroxidase conjugate diluted 1:10,000 in PBS-T was added to the wells for 30 minutes. Following a 2 mls per well wash with PBS-Tween-20, 100 μl of O-Phenylenediamine Dihydrochloride in phosphate-citrate buffer, containing urea hydrogen peroxide, was added to the wells for 7-10 minutes as a colorimetric substrate for the peroxidase. The reaction was terminated by the addition of 100 μl of 2.5NH2SO4 to each well and read using a microplate ELISA reader set at 492 nm. IC50 values for compound inhibition were calculated directly from graphs of optical density (arbitrary units) versus compound concentration following subtraction of blank values.
Target sequence in this assay (P35968 786-1356 limits assumed): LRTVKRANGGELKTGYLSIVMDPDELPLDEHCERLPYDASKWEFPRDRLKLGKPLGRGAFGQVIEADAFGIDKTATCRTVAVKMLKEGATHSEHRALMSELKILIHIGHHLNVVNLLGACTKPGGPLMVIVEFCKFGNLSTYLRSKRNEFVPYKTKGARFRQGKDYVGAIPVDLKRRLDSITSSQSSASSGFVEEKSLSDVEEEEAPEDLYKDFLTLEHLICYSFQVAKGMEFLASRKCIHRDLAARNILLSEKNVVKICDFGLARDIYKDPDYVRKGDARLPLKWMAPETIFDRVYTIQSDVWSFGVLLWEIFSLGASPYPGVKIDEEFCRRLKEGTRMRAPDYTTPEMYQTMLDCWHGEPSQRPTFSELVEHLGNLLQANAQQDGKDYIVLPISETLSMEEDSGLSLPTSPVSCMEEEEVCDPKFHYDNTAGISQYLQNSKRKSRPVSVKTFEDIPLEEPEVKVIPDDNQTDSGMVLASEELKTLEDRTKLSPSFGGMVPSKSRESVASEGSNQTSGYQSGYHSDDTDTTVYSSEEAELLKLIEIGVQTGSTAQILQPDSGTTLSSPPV
In general terms: ELISA stands for enzyme-linked immunosorbent assay.

Assay [2] deals with T2, VEGFR2. In words: VEGFR2 Cellular Assay (FLIPR, VEGF induced increases in intracellular calcium in HUVEC). To be noted: VEGF165 stimulation (10 ng/mL), Fluo-4. In kind it is cell-based. Further details: host or cells: HUVEC. Here is the method: Automated FLIPR (Fluorometric Imaging Plate Reader) technology was used to screen for inhibitors of VEGF induced increases in intracellular calcium levels in fluorescent dye loaded endothelial cells. HUVEC (human umbilical vein endothelial cells) (Clonetics) were seeded in 384-well fibronectin coated black-walled plates overnight @ 37° C./5% CO2. Cells were loaded with calcium indicator Fluo-4 for 45 minutes at 37° C. Cells were washed 2 times (El×405, Biotek Instruments) to remove extracellular dye. For screening, cells were pre-incubated with test agents for 30 minutes, at a single concentration (10 uM) or at concentrations ranging from 0.0001 to 10.0 uM followed by VEGF165 stimulation (10 ng/mL). Changes in fluorescence at 516 nm were measured simultaneously in all 384 wells using a cooled CCD camera. Data were generated by determining max-min fluorescence levels for unstimulated, stimulated, and drug treated samples. IC50 values for test compounds were calculated from % inhibition of VEGF stimulated responses in the absence of inhibitor.
Target sequence in this assay (P35968 20-1356): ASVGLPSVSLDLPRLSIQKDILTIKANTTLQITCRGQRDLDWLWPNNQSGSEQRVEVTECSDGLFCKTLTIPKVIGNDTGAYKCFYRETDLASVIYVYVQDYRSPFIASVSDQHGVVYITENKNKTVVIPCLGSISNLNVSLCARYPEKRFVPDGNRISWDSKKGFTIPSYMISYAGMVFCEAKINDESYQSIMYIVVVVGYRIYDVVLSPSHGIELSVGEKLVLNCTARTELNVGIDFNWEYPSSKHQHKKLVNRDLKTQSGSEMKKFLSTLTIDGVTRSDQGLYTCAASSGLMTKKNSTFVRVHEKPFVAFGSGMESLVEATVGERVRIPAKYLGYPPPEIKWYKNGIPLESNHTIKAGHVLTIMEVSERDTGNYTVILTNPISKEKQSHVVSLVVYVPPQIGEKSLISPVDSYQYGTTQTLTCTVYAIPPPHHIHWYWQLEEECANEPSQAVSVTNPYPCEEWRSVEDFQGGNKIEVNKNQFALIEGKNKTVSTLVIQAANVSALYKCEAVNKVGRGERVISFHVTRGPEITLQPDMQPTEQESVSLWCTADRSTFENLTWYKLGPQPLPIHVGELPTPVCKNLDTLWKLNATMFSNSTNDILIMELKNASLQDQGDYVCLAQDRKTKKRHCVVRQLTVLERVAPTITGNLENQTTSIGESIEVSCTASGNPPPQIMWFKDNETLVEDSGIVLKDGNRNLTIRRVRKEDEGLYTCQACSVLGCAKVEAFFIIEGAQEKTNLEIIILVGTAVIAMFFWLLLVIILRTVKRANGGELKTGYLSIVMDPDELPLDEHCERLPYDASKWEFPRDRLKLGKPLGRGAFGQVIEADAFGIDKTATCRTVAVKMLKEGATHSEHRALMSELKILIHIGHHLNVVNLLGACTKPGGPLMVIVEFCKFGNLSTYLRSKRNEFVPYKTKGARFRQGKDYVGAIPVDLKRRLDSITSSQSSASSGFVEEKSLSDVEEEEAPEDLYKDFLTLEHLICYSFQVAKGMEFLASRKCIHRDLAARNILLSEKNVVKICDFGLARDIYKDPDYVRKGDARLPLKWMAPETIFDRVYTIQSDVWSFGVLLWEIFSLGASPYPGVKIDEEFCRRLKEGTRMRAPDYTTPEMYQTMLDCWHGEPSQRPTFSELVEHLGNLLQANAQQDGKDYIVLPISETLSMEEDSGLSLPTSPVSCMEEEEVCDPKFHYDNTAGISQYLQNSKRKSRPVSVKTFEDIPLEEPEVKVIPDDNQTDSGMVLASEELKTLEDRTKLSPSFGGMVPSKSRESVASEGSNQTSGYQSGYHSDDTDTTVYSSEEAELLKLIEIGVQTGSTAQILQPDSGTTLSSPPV
On the technique in general: A change in cytosolic calcium serves as a functional read-out for many receptors and channels.

The next assay deals with VEGFR1 (Homo sapiens, UniProt P17948). In words: VEGFR1 Kinase. In kind it is biochemical.
VEGFR1, sequence (P17948 27-1338, species assumed): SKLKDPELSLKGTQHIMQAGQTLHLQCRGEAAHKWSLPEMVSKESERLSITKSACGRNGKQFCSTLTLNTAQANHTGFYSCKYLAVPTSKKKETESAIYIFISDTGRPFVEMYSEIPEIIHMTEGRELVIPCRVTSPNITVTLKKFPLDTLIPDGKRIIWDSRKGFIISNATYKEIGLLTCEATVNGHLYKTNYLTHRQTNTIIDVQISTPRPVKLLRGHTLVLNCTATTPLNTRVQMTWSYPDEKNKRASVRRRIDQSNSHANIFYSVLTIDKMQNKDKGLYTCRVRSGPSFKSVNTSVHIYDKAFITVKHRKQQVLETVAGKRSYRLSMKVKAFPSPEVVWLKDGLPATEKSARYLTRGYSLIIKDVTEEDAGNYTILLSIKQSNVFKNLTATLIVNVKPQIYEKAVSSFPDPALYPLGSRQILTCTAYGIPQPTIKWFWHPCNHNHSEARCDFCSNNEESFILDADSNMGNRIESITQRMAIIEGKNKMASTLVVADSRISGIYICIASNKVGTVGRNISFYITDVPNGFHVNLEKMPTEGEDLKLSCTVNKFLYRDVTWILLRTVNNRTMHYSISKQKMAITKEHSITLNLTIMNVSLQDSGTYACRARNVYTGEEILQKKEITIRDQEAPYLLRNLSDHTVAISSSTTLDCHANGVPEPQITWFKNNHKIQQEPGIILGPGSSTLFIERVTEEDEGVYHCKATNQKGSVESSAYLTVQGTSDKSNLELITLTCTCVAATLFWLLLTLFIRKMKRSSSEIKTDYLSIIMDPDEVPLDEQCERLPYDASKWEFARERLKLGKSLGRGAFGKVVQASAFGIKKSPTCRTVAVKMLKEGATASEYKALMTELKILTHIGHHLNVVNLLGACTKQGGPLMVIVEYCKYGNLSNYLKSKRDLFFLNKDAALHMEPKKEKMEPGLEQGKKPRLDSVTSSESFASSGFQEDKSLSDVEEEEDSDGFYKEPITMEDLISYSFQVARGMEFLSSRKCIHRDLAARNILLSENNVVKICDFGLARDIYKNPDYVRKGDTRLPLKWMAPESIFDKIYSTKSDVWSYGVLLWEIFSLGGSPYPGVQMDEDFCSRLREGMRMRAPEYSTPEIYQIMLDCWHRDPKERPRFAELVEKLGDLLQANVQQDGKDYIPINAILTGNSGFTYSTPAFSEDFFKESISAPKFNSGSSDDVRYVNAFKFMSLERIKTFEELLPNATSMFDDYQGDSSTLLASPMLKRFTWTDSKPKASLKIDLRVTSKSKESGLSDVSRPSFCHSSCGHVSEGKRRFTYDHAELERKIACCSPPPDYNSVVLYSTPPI

T1 sequence (P09619 554-1106 limits assumed): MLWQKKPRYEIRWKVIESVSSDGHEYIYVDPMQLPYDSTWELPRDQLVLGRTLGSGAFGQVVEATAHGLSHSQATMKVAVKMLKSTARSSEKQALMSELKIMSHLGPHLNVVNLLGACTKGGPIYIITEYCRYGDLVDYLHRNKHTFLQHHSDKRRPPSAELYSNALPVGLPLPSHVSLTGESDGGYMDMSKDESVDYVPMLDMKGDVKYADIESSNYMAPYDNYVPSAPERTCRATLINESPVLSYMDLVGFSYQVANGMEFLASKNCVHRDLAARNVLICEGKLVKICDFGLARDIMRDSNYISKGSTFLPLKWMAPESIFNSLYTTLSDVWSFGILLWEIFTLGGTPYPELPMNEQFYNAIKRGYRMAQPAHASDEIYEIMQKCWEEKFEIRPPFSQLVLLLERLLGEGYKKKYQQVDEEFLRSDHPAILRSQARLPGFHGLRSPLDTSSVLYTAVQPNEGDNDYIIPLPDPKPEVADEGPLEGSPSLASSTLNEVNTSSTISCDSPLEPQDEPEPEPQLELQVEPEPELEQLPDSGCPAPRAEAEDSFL

Take `COC(=O)CCCCS(=O)(CCCCC(=O)OC)=NC(=O)c1cnc(N)c(C#Cc2cccc(NC(=O)c3cccc(C)c3)c2)c1` [Example 1, Dimethyl 5,5′-(N-{[6-amino-5-({3-[(3 methylbenzoyl)amino]phenyl}ethynyl)pyridin-3-yl]carbonyl}sulfonimidoyl)dipentanoate]: the results for the IC50 against PDGFRβ, against VEGFR2 [1] and at VEGFR2 [2] were 25 nM, 9 nM and less than 1 nM, respectively.
`COC(=O)CCCCS(=O)(CCCCC(=O)OC)=NC(=O)c1cnc(N)c(C#Cc2cccc(NC(=O)c3occc3C)c2)c1` [Example 2, Dimethyl 5,5′-(N-{[6-amino-5-({3-[(3-methyl-2-furoyl)amino]phenyl}ethynyl)pyridin-3-yl]carbonyl}sulfonimidoyl)dipentanoate]: the half-inhibitory concentration (IC50) (as a rule, the point on the concentration scale where inhibition reaches its midpoint) was 176 nM against PDGFRβ, 3 nM on VEGFR2 [1], 10 nM at VEGFR1 and 3 nM on VEGFR2 [2].
`COC(=O)CCCCS(=O)(CCCCC(=O)OC)=NC(=O)c1cnc(N)c(C#Cc2cccc(NC(=O)c3cccc(SC)c3)c2)c1` [Example 3, Dimethyl 5,5′-[N-({6-amino-5-[(3-{[3-(methylthio)benzoyl]amino}phenyl)ethynyl]pyridin-3-yl}carbonyl)sulfonimidoyl]dipentanoate]: the IC50 against VEGFR2 [1] is 5 nM; at VEGFR2 [2], 4 nM.
For the molecule `COC(=O)CCCCS(=O)(CCCCC(=O)OC)=NC(=O)c1cnc(N)c(C#Cc2cccc(NC(=O)c3ccc(F)c(Cl)c3)c2)c1` [Example 4, Dimethyl 5,5′-(N-{[6-amino-5-({3-[(3-chloro-4-fluorobenzoyl)amino]phenyl}ethynyl)pyridin-3-yl]carbonyl}sulfonimidoyl)dipentanoate], the figures for the IC50 on PDGFRβ, on VEGFR2 [1] and at VEGFR2 [2] were 34 nM, 8 nM and 2 nM, respectively.
Turning to `COC(=O)CCCCS(=O)(CCCCC(=O)OC)=NC(=O)c1cnc(N)c(C#Cc2cccc(NC(=O)c3cccc(C(F)(F)F)c3)c2)c1` [Example 5, Dimethyl 5,5′-[N-({6-amino-5-[(3-{[3-(trifluoromethyl)benzoyl]amino}phenyl)ethynyl]pyridin-3-yl}carbonyl)sulfonimidoyl]dipentanoate], the results for the IC50 against PDGFRβ, against VEGFR2 [1] and at VEGFR2 [2] were 10 nM, 10 nM and 3 nM, respectively.
For `COC(=O)CCCCS(=O)(CCCCC(=O)OC)=NC(=O)c1cnc(N)c(C#Cc2cccc(NC(=O)c3cccc(Cl)c3)c2)c1` [Example 6], the IC50 on PDGFRβ stood at 21 nM; against VEGFR2 [1] it was 11 nM; on VEGFR2 [2] it was 1 nM.
`COC(=O)CCCCS(=O)(CCCCC(=O)OC)=NC(=O)c1cnc(N)c(C#Cc2cccc(NC(=O)c3cccc([S+](C)[O-])c3)c2)c1` (stereo not shown) [Example 8, Dimethyl 5,5′-[N-({6-amino-5-[(3-{[3-(methylsulfinyl)benzoyl]amino}phenyl)ethynyl]pyridin-3-yl}carbonyl)sulfonimidoyl]dipentanoate]: the IC50 on VEGFR2 [1] came out at 12 nM; at VEGFR2 [2], 6 nM.
For the molecule `COC(=O)CCCCS(=O)(CCCCC(=O)OC)=NC(=O)c1cnc(N)c(C#Cc2cccc(NC(=O)c3cc(C(F)(F)F)ccc3F)c2)c1` [Example 10, Dimethyl 5,5′-[N-({6-amino-5-[(3-{[2-fluoro-5-(trifluoromethyl)benzoyl]amino}phenyl)ethynyl]pyridin-3-yl}carbonyl)sulfonimidoyl]dipentanoate], the IC50 came out at 69 nM against PDGFRβ, 20 nM at VEGFR2 [1] and 6 nM at VEGFR2 [2].
In the same order, the values of `COC(=O)CCCCS(=O)(CCCCC(=O)OC)=NC(=O)c1cnc(N)c(C#Cc2cccc(C(=O)Nc3cccc(OC)c3)c2)c1` [Example 11, Dimethyl 5,5′-[N-({6-amino-5-[(3-{[(3-methoxyphenyl)amino]carbonyl}phenyl)ethynyl]pyridin-3-yl}carbonyl)sulfonimidoyl]dipentanoate] are 38 nM, 4 nM and 2 nM.
The matching figures for `COC(=O)CCCCS(=O)(CCCCC(=O)OC)=NC(=O)c1cnc(N)c(C#Cc2cccc(C(=O)Nc3cccc(C)c3)c2)c1` [Example 12, Dimethyl 5,5′-[N-({6-amino-5-[(3-{[(3-methylphenyl)amino]carbonyl}phenyl)ethynyl]pyridin-3-yl}carbonyl)sulfonimidoyl]dipentanoate]: 57 nM, 8 nM and 1 nM.
In the case of `COC(=O)CCCCS(=O)(CCCCC(=O)OC)=NC(=O)c1cnc(N)c(C#Cc2cccc(C(=O)Nc3ccc(OC)c(Cl)c3)c2)c1` [Example 13, Dimethyl 5,5′-[N-({6-amino-5-[(3-{[(3-chloro-4-methoxyphenyl)amino]carbonyl}phenyl)ethynyl]pyridin-3-yl}carbonyl)sulfonimidoyl]dipentanoate], the results for the IC50 against PDGFRβ, against VEGFR2 [1] and at VEGFR2 [2] were 38 nM, 9 nM and 5 nM, respectively.
With `COC(=O)CCCCS(=O)(CCCCC(=O)OC)=NC(=O)c1cnc(N)c(C#Cc2cccc(C(=O)Nc3ccc(F)c(Cl)c3)c2)c1` [Example 15, Dimethyl 5,5′-[N-({6-amino-5-[(3-{[(3-chloro-4-fluorophenyl)amino]carbonyl}phenyl)ethynyl]pyridin-3-yl}carbonyl)sulfonimidoyl]dipentanoate], the IC50 was found to be 68 nM at PDGFRβ, 15 nM at VEGFR2 [1] and 11 nM at VEGFR2 [2].
As to `COC(=O)CCCCS(=O)(CCCCC(=O)OC)=NC(=O)c1cnc(N)c(C#Cc2cccc(C(=O)Nc3cc(C(C)(C)C)on3)c2)c1` [Example 16, Dimethyl 5,5′-[N-({6-amino-5-[(3-{[(5-tert-butylisoxazol-3-yl)amino]carbonyl}phenyl)ethynyl]pyridin-3-yl}carbonyl)sulfonimidoyl]dipentanoate], the IC50 is 20 nM against PDGFRβ, 28 nM at VEGFR2 [1] and 27 nM on VEGFR1.
For the molecule `COC(=O)CCCCS(=O)(CCCCC(=O)OC)=NC(=O)c1cnc(N)c(C#Cc2cccc(C(=O)Nc3ccc(Cl)c(C(F)(F)F)c3)c2)c1` [Example 17, Dimethyl 5,5′-{N-[(6-amino-5-{[3-({[4-chloro-3-(trifluoromethyl)phenyl]amino}carbonyl)phenyl]ethynyl}pyridin-3-yl)carbonyl]sulfonimidoyl}dipentanoate], the IC50 on PDGFRβ was determined as 36 nM; at VEGFR2 [1], 37 nM; against VEGFR1, 32 nM.
With `COC(=O)CCCCS(=O)(CCCCC(=O)OC)=NC(=O)c1cnc(N)c(C#Cc2cccc(NC(=O)Nc3cc(C)ccc3F)c2)c1` [Example 18, Dimethyl 5,5′-{N-[(6-amino-5-{[3-({[(2-fluoro-5-methylphenyl)amino]carbonyl}amino)phenyl]ethynyl}pyridin-3-yl)carbonyl]sulfonimidoyl}dipentanoate], the IC50 against VEGFR2 [1] stood at 10 nM; at VEGFR2 [2], 23 nM.
